{
  "source": "patent US20150342959A1",
  "about": "“METHODS AND COMPOSITIONS FOR SUSTAINED N[…]” (DemeRx, Inc., priority 2014, published 2015)",
  "key": {"[1]": {"test_system": "healthy, drug-free male volunteers", "assay": "Safety and tolerability of noribogaine in healthy humans (adverse events, vital signs, ECG)", "assay_type": "in vivo, human", "description": "(§1) Pulse oximetry and capnography data were collected continuously using a GE Carescape B650 monitoring system from 2 hours prior to dosing and until six hours after dosing, and thereafter at 12, 24, 48 and 72 hours post-dosing. Additional oximetry data were collected at 120, 168 and 216 hours. Pupillary miosis was assessed by pupillometry. Dark-adapted pupil diameter was measured in triplicate using a Neuroptics PLR-200 pupillometer under standardized light intensity (<5 lux) pre-dose, and at 2, 4, 6, 12, 24, 48, 72, 96, 120, 168 and 216 hours post-dosing.\n(§2) Safety and tolerability of noribogaine were tested in the group of volunteers from Example 1. Cold pressor testing was conducted in 1° C. water according to the method of Mitchell et al. (J Pain 5:233-237, 2004) pre-dose, 6, 24, 48, 72 and 216 hours post-dosing. Safety evaluations included clinical monitoring, recording of adverse events (AEs), safety laboratory tests, vital signs, ECG telemetry from −2 h to 6 h after dosing, and 12-lead electrocardiograms (ECGs) up to 216 hours post-dosing."}, "[2]": {"test_system": "opioid-dependent participants", "assay": "Opiate withdrawal scales (COWS, SOWS, OOWS)", "assay_type": "in vivo, human", "conditions": "first six hours following dosing", "description": "Patients were evaluated based on the Clinical Opiate Withdrawal Scale (COWS), Subjective Opiate Withdrawal Scale (SOWS), and Objective Opiate Withdrawal Scale (OOWS) scoring systems over the period of time between administration of noribogaine (or placebo) until resumption of OST. These scales are outlined in Guidelines for the Psychosocially Assisted Pharmacological Treatment of Opioid Dependence, World Health Organization, Geneva (2009), Annex 10, which is incorporated herein by reference in its entirety. The scales measure the intensity of withdrawal symptoms, based on clinical, subjective, and objective indicia."}, "[3]": {"test_system": "opioid-dependent participants", "assay": "Time to resumption of morphine (opioid substitution treatment, OST)", "assay_type": "in vivo, human"}, "[4]": {"test_system": "healthy, drug-free male volunteers", "assay": "Pupillometry (pupillary miosis, dark-adapted pupil diameter)", "assay_type": "in vivo, human", "conditions": "adjusted for baseline, p>0.9", "description": "as §1\n(§3) Summary statistics (means, standard deviations, and coefficients of variation) were determined for each dose group for safety laboratory test data, ECG and pharmacokinetic parameters, and pharmacodynamic variables. Categorical variables were analysed using counts and percentages. Dose-proportionality of AUC and Cmax was assessed using linear regression. The effect of dose on pharmacodynamic parameter values over time was assessed using two-factor analysis of variance (ANOVA). Pairwise comparisons (with Tukey-Kramer adjustment) between each dose group to the placebo were conducted at each time point using the least squares estimates obtained from the ANOVA, using SAS Proc Mixed (SAS ver 6.0)."}, "[5]": {"test_system": "healthy, drug-free male volunteers", "assay": "Cold pressor test (analgesic effect)", "assay_type": "in vivo, human", "conditions": "adjusted for baseline", "description": "as §3\nAnalgesic effect was assessed based on duration of hand immersion in ice water and on visual analog scale (VAS) pain scores upon hand removal from the water bath.\nas §2"}, "[6]": {"assay": "Pharmacokinetics in opioid-dependent patients (Phase IB study, serum noribogaine)", "conditions": "60, 120, 180 mg"}},
  "data": [
    {"smiles": "CC[C@H]1CC2C[C@H]3c4[nH]c5ccc(O)cc5c4CCN(C2)C13", "note": "[noribogaine]", "values": [
      {"measurement": "adverse events reported", "setting": "[1]; 3 mg dose group", "value": "five adverse events were reported by two subjects"},
      {"measurement": "adverse events reported", "setting": "[1]; 10 mg dose group", "value": "one adverse event was reported by single subjects"},
      {"measurement": "adverse events reported", "setting": "[1]; 30 mg dose group", "value": "one adverse event was reported by single subjects"},
      {"measurement": "changes in oximetry, capnography, respiratory rate", "setting": "[1]; 3-60 mg", "value": "no changes in oximetry or capnography, or changes in respiratory rate"},
      {"measurement": "changes in vital signs or safety laboratory tests", "setting": "[1]; 3-60 mg", "value": "no changes in vital signs or safety laboratory tests of note"},
      {"measurement": "withdrawal symptoms (COWS, OOWS, SOWS)", "setting": "[2]; 120 mg", "value": "fewer withdrawal symptoms than the other patients"},
      {"measurement": "withdrawal symptoms, noribogaine vs placebo", "setting": "[2]; 60, 120, 180 mg", "value": "placebo generally experienced more withdrawal symptoms than patients who were administered noribogaine"},
      {"measurement": "Time to resumption of OST", "setting": "[3]; 180 mg, longer than untreated patients (7 hours, not shown) or 60 mg", "value": "> 7", "unit": "h"},
      {"measurement": "average time to resumption of opioids", "setting": "[3]; single 120 mg dose", "value": "greater than 20 hours"},
      {"measurement": "pupil diameter, each dose group vs placebo by ANOVA", "setting": "[4]", "value": "no statistically significant differences"},
      {"measurement": "VAS pain scores, each dose group vs placebo by ANOVA", "setting": "[5]; p=0.17", "value": "no statistically significant differences"},
      {"measurement": "duration of hand immersion, each dose group vs placebo by ANOVA", "setting": "[5]; p>0.9", "value": "no statistically significant differences"},
      {"measurement": "Maximum serum concentration of noribogaine (Cmax), dose dependence", "setting": "[6]", "value": "increased in a dose-dependent manner"}
    ]}
  ]
}
